# PMC6790694, “Selective Modification of Ribosomally Synthesized and Post‐Translationally Modified Peptides (RiPPs) through Diels–Alder Cycloadditions on Dehydroalanine Residues” (Chemistry (Weinheim an Der Bergstrasse, Germany), 2019)
# Columns and labels:
# S. aureus (ATCC29213) = assay: MIC assay, broth microdilution, S. aureus; type: cell-based, Staphylococcus aureus; conditions: supplement table SI-21; S. aureus LMG 10147 (ATCC29213); broth microdilution in CAMHB, 37 °C, 20 h; tested three times in triplicates
# Experimental: (§1) Moreover, variations in activity towards both strains and between the different site‐ and endo/exo isomers remained limited to a factor of 4. The activity of 3 also very closely resembles that of thiostrepton, showing that even removing part of the tail region has little effect on its activity.
# (§2) Biological Activity Assays
# (§3) Preparation of antimicrobial agents
# (§4) Thiostrepton and its variants were dissolved and diluted in DMSO to a concentration of 640 µg/ml, and stored at -20 °C. Before use, they were diluted 20 fold in Mueller Hinton Broth 2 (CAMHB; cation-adjusted, Sigma-Aldrich).
# (§5) Dilution of the thiostrepton compounds in CAMHB was done in 50 % volume steps to prevent precipitation.
# (§6) Vancomycin for the quality controls was dissolved in MQ to a concentration of 256 mg/ml and stored at -20 °C.
# (§7) It was diluted in CAMHB to a final concentration of 256 µg/ml before use.
# (§8) Strains and growth conditions
# (§9) The MIC values of thiostrepton and its variants were determined for Staphylococcus aureus LMG 10147 […]
# (§10) from glycerol stocks on LB (Formedium™) and GM17 (Difco™) plates respectively. […]
# (§11) Well 11, lacking the test compound, functions as a growth control and well 12 as a sterility control. […] To ensure MIC data reliability, MIC values for vancomycin were determined for every series of tests performed, as described […]
# E. faecalis (ATCC29212) = assay: MIC assay, broth microdilution, E. faecalis; type: cell-based, Enterococcus faecalis; conditions: supplement table SI-21; E. faecalis LMG 08222 (ATCC29212); broth microdilution in CAMHB + 3 % v/v lysed horse blood, 37 °C, 20 h; tested three times in triplicates
# Experimental: as §1, §2, §3, §4, §5, §6, §7, §8, §9, §10, §11
structure (smiles),measurement,setting,value
"C=C(NC(=O)C(=C)NC(=O)c1csc(C2=N[C@@H]3c4csc(n4)[C@H]4NC(=O)c5csc(n5)[C@H]([C@](C)(O)[C@@H](C)O)NC(=O)[C@H]5CSC(=N5)/C(=C/C)NC(=O)[C@H]([C@@H](C)O)NC(=O)c5csc(n5)[C@]3(CC2)NC(=O)[C@H](C)NC(=O)C(=C)NC(=O)[C@H](C)NC(=O)[C@H]([C@@H](C)CC)N[C@@H]2C=Cc3c([C@H](C)O)cc(nc3[C@H]2O)C(=O)O[C@@H]4C)n1)C(N)=O [Thiostrepton, thiostrepton]",MIC against S. aureus (MSSA),S. aureus (ATCC29213),0.5 µg/mL
same,MIC against E. faecalis (VSE),E. faecalis (ATCC29212),0.5 µg/mL
